Results from paper PMC5063977 (The Journal of Biological Chemistry, 2016).

Legend:
Format in all cases: cell-based
[1] = target: T1, RAMP2-CLR (AM1 receptor) (Homo sapiens, UniProt O60895+Q16602); assay: (Ca^2+)i mobilization, HEK-293 cells, RAMP2 + CLR; details: HEK293, percentage of maximal (Ca^2+)i release with 10 μM ionomycin, mean ± S.E., n = 5
T1 construct: FLAG; expressed in transfected cells; host or cells: HEK-293 or HEK-293S cells, transient transfection, 1:1 RAMP:CLR
Experimental: (§1) HEK-293 cells were transfected with FuGENE 6 (Roche Applied Science) in accordance with the manufacturer's instructions using a 1:3 (w:v) DNA:FuGENE ratio and a 1:1 ratio of RAMP to CLR. […] The transfected cell lines were grown for 24–48 h prior to assaying.
Transfected HEK-293 cells were grown to confluence in black, clear bottomed, 96-well plates. […] Cells were then washed followed by the addition of 100 μl of Ca^2+-free Hanks' balanced salt solution. […] Recordings were obtained every 0.5 s for 120 s. Peak magnitude was calculated using five-point smoothing followed by correction against background fluorescence. The peak was used to generate concentration-response curves and normalized relative to 10 μM ionomycin.
(§2) Data analysis for cAMP assays was performed in GraphPad Prism 6.0f (San Diego, CA). […] These values were then used to quantify signaling bias as change in log (τ/Ka) relative to the natural cognate ligand for the respective receptor ([41]). […] Statistical differences were analyzed using one-way ANOVA or Student's t test as appropriate with post hoc Bonferroni's or Dunnett's multiple comparisons, and p < 0.05 was considered significant. […] To quantitate the ligand-dependent response in the yeast system, a strain lacking GPA1 (MMY11), grown in rich medium, was used as a standard ([72]). […]

[2] = target: T2, RAMP1-CLR (CGRP receptor) (Homo sapiens, UniProt O60894+Q16602); assay: cAMP accumulation, HEK-293 cells, RAMP1 + CLR; details: mean ± S.E.
T2 construct: FLAG; expressed in transfected cells; host or cells: HEK-293 or HEK-293S cells, transient transfection, 1:1 RAMP:CLR
T2 sequence (Q16602 23-461): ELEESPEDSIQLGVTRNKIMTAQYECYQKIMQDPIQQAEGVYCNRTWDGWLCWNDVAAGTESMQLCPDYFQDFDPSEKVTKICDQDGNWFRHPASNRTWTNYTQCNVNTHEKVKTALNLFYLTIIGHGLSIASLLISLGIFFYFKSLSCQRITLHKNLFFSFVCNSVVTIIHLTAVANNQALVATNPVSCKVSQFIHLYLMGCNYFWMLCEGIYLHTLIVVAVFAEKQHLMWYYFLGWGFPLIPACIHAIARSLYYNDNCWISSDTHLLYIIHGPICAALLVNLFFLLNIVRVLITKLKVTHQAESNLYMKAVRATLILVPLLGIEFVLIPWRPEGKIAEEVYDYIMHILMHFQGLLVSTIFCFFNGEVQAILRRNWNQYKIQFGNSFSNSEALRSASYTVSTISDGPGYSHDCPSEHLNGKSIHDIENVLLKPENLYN
T2 sequence (O60894 27-148): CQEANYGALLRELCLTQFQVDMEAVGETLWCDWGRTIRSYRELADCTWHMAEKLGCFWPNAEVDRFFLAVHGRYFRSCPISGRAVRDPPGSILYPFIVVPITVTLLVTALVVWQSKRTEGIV
Experimental: as §1
(§3) The transfected HEK-293 cells were washed in PBS, resuspended in stimulation buffer (PBS containing 0.1% BSA and 0.5 mM IBMX), and seeded at 2000 cells/well in 384-well white Optiplates. Ligands were added in the range of 1 pM to 1 mM, and cAMP accumulation was measured after 30 min of stimulation using a LANCE® cAMP detection kit (PerkinElmer Life Sciences). […] Plates were read using a Mithras LB 940 multimode microplate reader (Berthold Technologies). […] Values were converted to concentration using a cAMP standard curve performed in parallel.
Data analysis for cAMP assays was performed in GraphPad Prism 6.0f (San Diego, CA). Data were fitted to obtain concentration-response curves using either the three-parameter logistic equation (for pEC50 values) or the operational model for partial agonism ([34]) to obtain values of efficacy (log τ) and the equilibrium dissociation constant (log Ka). These values were then used to quantify signaling bias as change in log (τ/Ka) relative to the natural cognate ligand for the respective receptor ([41]). […] Statistical differences were analyzed using one-way ANOVA or Student's t test as appropriate with post hoc Bonferroni's or Dunnett's multiple comparisons, and p < 0.05 was considered significant. […] For RT-PCR, normalization to the internal standard GAPDH was performed to reduce variance and enable a comparison between different cell lines. To quantitate the ligand-dependent response in the yeast system, a strain lacking GPA1 (MMY11), grown in rich medium, was used as a standard ([72]). As GPA1 is not present in this strain, the Gβγ subunits are unregulated and free to signal, allowing us to determine the maximal response of our system. […] For the mammalian cell-based assays, data analysis was carried out as for the yeast curves. […]

[3] = target: T2, RAMP1-CLR (CGRP receptor); assay: cAMP accumulation, HEK-293S cells, RAMP1 + CLR; details: HEK293S, untreated, percentage of maximal cAMP with 100 μM forskolin, mean ± S.E., n = 5
Experimental: as §1, §3, §2

[4] = target: T3, RAMP3-CLR (AM2 receptor) (Homo sapiens, UniProt O60896+Q16602); assay: cAMP accumulation, HEK-293S cells, RAMP3 + CLR; parameters: dose or concentration left out as unconfirmed; details: HEK293S, mean ± S.E., n = 5
T3 construct: FLAG; expressed in transfected cells; host or cells: HEK-293 or HEK-293S cells, transient transfection, 1:1 RAMP:CLR
T3 sequence (Q16602 23-461): as the sequence (Q16602 23-461) above
T3 sequence (O60896 24-148): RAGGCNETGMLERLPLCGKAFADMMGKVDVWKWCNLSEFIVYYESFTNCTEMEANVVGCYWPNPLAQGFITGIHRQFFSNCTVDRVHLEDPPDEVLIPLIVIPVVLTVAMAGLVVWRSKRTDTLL
Experimental: HEK-293 cells, provided by Dr. Jügen Müller (University of Aston), were cultured in DMEM supplemented with 10% heat-inactivated FBS and kept at 37 °C in a humidified 95% air, 5% CO2 incubator. HEK-293S cells (a gift from AstraZeneca) were cultured in DMEM supplemented with 8% heat-inactivated FBS and kept at 37 °C in a humidified 95% air, 5% CO2 incubator. HEK-293 cells were transfected with FuGENE 6 (Roche Applied Science) in accordance with the manufacturer's instructions using a 1:3 (w:v) DNA:FuGENE ratio and a 1:1 ratio of RAMP to CLR. HEK-293S cells were seeded into 96-well poly-D-lysine-coated plates at a density of 15,000 cells/well (determined using a Countess^TM cell counter, Invitrogen) 1 day prior to transfection. HEK-293S cells were transiently transfected as described previously ([38]) using a 1:1 ratio of RAMP to CLR. The transfected cell lines were grown for 24–48 h prior to assaying.
The transfected HEK-293 cells were washed in PBS, resuspended in stimulation buffer (PBS containing 0.1% BSA and 0.5 mM IBMX), and seeded at 2000 cells/well in 384-well white Optiplates. Ligands were added in the range of 1 pM to 1 mM, and cAMP accumulation was measured after 30 min of stimulation using a LANCE® cAMP detection kit (PerkinElmer Life Sciences). […] Plates were read using a Mithras LB 940 multimode microplate reader (Berthold Technologies). […]

T1 sequence (Q16602 23-461): as the sequence (Q16602 23-461) above
T1 sequence (O60895 43-175): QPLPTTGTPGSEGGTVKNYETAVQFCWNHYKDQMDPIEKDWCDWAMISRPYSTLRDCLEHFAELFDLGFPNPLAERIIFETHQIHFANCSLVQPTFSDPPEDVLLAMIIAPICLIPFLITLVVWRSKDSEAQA

SMILES | Emax [1] | Emax ([2]; HEK293, PTX treated (200 ng/ml, 16 h), percentage of maximal cAMP with 100 μM forskolin in presence of PTX, n = 6 (Table 3)) | Emax ([2]; HEK293, percentage of maximal cAMP with 100 μM forskolin, HEK-293, 30 min, n = 11 (Table 2)) | Emax ([2]; HEK293, untreated, percentage of maximal cAMP with 100 μM forskolin in presence of PTX, n = 9 (Table 3)) | Emax [3] | Emax [4]
CSCC[C@H](NC(=O)[C@H](CC(C)C)NC(=O)[C@H](CCC(N)=O)NC(=O)[C@H](Cc1c[nH]c2ccccc12)NC(=O)[C@H](CC(C)C)NC(=O)[C@H](CCCNC(=N)N)NC(=O)[C@H](Cc1c[nH]cn1)NC(=O)[C@H](CO)NC(=O)[C@H](CC(C)C)NC(=O)[C@H](CC(N)=O)NC(=O)[C@H](CCC(N)=O)NC(=O)[C@@H](NC(=O)[C@H](CCC(N)=O)NC(=O)[C@@H]1CSSC[C@H](NC(=O)CNC(=O)[C@@H](NC(=O)[C@H](CCCNC(=N)N)NC(=O)[C@H](CC(C)C)NC(=O)[C@H](CC(C)C)NC(=O)[C@H](CCC(N)=O)NC(=O)[C@H](C)NC(=O)[C@H](CCC(N)=O)NC(=O)[C@@H](N)[C@@H](C)O)C(C)C)C(=O)N[C@@H](C(C)C)C(=O)N[C@@H](CC(C)C)C(=O)NCC(=O)N[C@@H]([C@@H](C)O)C(=O)N1)C(C)C)C(=O)NCC(=O)N1CCC[C@H]1C(=O)N[C@@H](C)C(=O)NCC(=O)N[C@@H](CCCNC(=N)N)C(=O)N[C@@H](CCC(N)=O)C(=O)N[C@@H](CC(=O)O)C(=O)N[C@@H](CO)C(=O)N[C@@H](C)C(=O)N1CCC[C@H]1C(=O)N[C@H](C(=O)N[C@@H](CC(=O)O)C(=O)N1CCC[C@H]1C(=O)N[C@@H](CO)C(=O)N[C@@H](CO)C(=O)N1CCC[C@H]1C(=O)N[C@@H](Cc1c[nH]cn1)C(=O)N[C@@H](CO)C(=O)N[C@@H](Cc1ccc(O)cc1)C(N)=O)C(C)C [AM2, adrenomedullin 2] | 44.4 ± 7.1% |  |  |  |  | 
CC[C@H](C)[C@H](NC(=O)[C@H](CCC(N)=O)NC(=O)[C@H](Cc1c[nH]cn1)NC(=O)[C@H](C)NC(=O)[C@H](CC(C)C)NC(=O)[C@H](CCCCN)NC(=O)[C@H](CCC(N)=O)NC(=O)[C@@H](NC(=O)[C@@H](NC(=O)[C@@H]1CSSC[C@H](NC(=O)CNC(=O)[C@H](Cc2ccccc2)NC(=O)[C@H](CO)NC(=O)[C@H](CCCNC(=N)N)NC(=O)[C@H](CC(C)C)NC(=O)CNC(=O)[C@H](CCC(N)=O)NC(=O)[C@H](Cc2ccccc2)NC(=O)[C@H](CC(N)=O)NC(=O)[C@H](CC(N)=O)NC(=O)[C@H](CCSC)NC(=O)[C@H](CO)NC(=O)[C@H](CCC(N)=O)NC(=O)[C@H](CCCNC(=N)N)NC(=O)[C@@H](N)Cc2ccc(O)cc2)C(=O)N[C@@H](CCCNC(=N)N)C(=O)N[C@@H](Cc2ccccc2)C(=O)NCC(=O)N[C@@H]([C@@H](C)O)C(=O)N1)[C@@H](C)O)C(C)C)C(=O)N[C@@H](Cc1ccc(O)cc1)C(=O)N[C@@H](CCC(N)=O)C(=O)N[C@@H](Cc1ccccc1)C(=O)N[C@H](C(=O)N[C@@H](CC(=O)O)C(=O)N[C@@H](CCCCN)C(=O)N[C@@H](CC(=O)O)C(=O)N[C@@H](CCCCN)C(=O)N[C@@H](CC(=O)O)C(=O)N[C@@H](CC(N)=O)C(=O)N[C@H](C(=O)N[C@@H](C)C(=O)N1CCC[C@H]1C(=O)N[C@@H](CCCNC(=N)N)C(=O)N[C@@H](CO)C(=O)N[C@@H](CCCCN)C(=O)N[C@H](C(=O)N[C@@H](CO)C(=O)N1CCC[C@H]1C(=O)N[C@@H](CCC(N)=O)C(=O)NCC(=O)N[C@@H](Cc1ccc(O)cc1)C(N)=O)[C@@H](C)CC)C(C)C)[C@@H](C)O [AM, adrenomedullin] |  | 72.2 ± 1.7% | 45.2 ± 3.7% | 48.1 ± 2.5% | 60 ± 3.1% | 39.1 ± 1.2%
